{"source": "paper PMC13415951", "about": "(Journal of Experimental Botany, 2026)", "key": {"[1]": {"target": "T1, OsUGT79 H122A/L123A/Q202A (Oryza sativa subsp. japonica, UniProt Q7XT97, H122A/L123A/Q202A)", "T1 sequence (Q7XT97 1-466 H122A/L123A/Q202A)": "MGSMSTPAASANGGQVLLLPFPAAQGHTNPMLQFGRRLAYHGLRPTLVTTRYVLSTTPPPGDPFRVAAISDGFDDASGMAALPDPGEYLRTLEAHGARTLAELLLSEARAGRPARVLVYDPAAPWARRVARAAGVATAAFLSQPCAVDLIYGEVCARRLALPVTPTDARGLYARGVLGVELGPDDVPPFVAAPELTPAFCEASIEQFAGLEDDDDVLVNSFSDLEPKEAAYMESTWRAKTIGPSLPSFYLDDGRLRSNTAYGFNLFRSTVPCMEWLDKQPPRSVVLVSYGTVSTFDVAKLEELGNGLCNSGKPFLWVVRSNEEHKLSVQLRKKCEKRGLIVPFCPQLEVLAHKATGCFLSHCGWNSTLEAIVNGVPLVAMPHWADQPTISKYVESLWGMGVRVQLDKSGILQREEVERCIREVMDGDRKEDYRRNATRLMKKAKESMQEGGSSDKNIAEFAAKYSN", "type": "biochemical"}, "OsUGT79": {"target": "T2, OsUGT79 (Oryza sativa subsp. japonica, UniProt Q7XT97)", "T2 construct": "made in house; host or cells: E. coli", "T2 sequence (Q7XT97 1-466)": "T1 sequence (Q7XT97 1-466 H122A/L123A/Q202A) with A122H, A123L, A202Q", "assay": "biochemical", "type": "biochemical"}, "OsUGT79 Q202A": {"target": "T3, OsUGT79 Q202A (Oryza sativa subsp. japonica, UniProt Q7XT97, Q202A)", "T3 sequence (Q7XT97 1-466 Q202A)": "T1 sequence (Q7XT97 1-466 H122A/L123A/Q202A) with A122H, A123L", "assay": "biochemical", "type": "biochemical"}, "[2]": {"target": "T1, OsUGT79 H122A/L123A/Q202A", "assay": "biochemical", "type": "biochemical"}, "B. distachyon Bd21-3": {"test_system": "B. distachyon Bd21-3", "design": "species or system Brachypodium distachyon", "conditions": "in vivo"}, "[3]": {"test_system": "human glucuronosyltransferases in liver microsomes", "design": "method as in Woelflingseder et al., 2019", "conditions": "ref Woelflingseder et al., 2019; cited from earlier work"}, "[4]": {"test_system": "marine and terrestrial (human pathogenic) fungi", "design": "method as in Strongman et al., 1987", "conditions": "ref Strongman et al., 1987; cited from earlier work"}, "animal cells": {"test_system": "animal cells", "design": "method as in Gruber-Dorninger et al., 2017", "conditions": "in vitro assays; ref Gruber-Dorninger et al., 2017; cited from earlier work"}, "piglets": {"test_system": "piglets", "design": "method as in Rotter et al., 1992", "conditions": "ref Rotter et al., 1992; cited from earlier work"}, "Heliothis zea larvae": {"test_system": "Heliothis zea larvae", "design": "method as in Dowd et al., 1989", "conditions": "ref Dowd et al., 1989; cited from earlier work"}, "HvUGT13248": {"target": "T4, HvUGT13248 (Hordeum vulgare subsp. vulgare, UniProt M0Y4P1)", "T4 sequence (M0Y4P1 1-475)": "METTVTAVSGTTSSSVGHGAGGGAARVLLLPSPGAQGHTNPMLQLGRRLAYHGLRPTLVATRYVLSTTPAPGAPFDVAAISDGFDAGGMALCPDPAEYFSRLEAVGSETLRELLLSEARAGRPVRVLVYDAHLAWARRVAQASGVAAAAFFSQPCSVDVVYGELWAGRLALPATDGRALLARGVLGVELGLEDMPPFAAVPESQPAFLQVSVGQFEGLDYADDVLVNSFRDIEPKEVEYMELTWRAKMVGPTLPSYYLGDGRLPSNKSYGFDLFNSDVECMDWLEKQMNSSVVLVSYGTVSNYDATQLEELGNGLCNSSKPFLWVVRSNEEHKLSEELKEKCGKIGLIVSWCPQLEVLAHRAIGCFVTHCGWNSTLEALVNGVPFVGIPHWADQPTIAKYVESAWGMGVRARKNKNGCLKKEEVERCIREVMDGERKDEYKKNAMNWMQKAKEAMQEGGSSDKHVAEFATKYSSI", "assay": "biochemical", "type": "biochemical", "design": "made in house; host or cells: E. coli"}}, "note": "Residue numbers refer to the chain shown, from its start."}
{"smiles": "CC1(C)CCC[C@]2(C)[C@@H]3[C@H]1[C@@H](O)[C@@]2(C)C[C@H]3O", "note": "[CUL, culmorin]", "values": [{"measurement": "Specific activity (glucoside formation)", "setting": "[1]", "result": "2.89 ± 0.10", "unit": "nmol/min/mg"}, {"measurement": "K iu of CUL (uncompetitive inhibition, DON as variable substrate)", "setting": "OsUGT79", "result": 208, "unit": "µM"}, {"measurement": "K iu of CUL (uncompetitive inhibition, UDP-glucose as variable substrate)", "setting": "OsUGT79", "result": 124, "unit": "µM"}, {"measurement": "Ki", "setting": "OsUGT79", "result": 146, "unit": "µM"}, {"measurement": "K iu of CUL (uncompetitive inhibition, DON as variable substrate)", "setting": "OsUGT79 Q202A", "result": 56, "unit": "µM"}, {"measurement": "Ki", "setting": "OsUGT79 Q202A", "result": 16, "unit": "µM"}, {"measurement": "K iu of CUL (uncompetitive inhibition, DON as variable substrate)", "setting": "[2]", "result": 217, "unit": "µM"}, {"measurement": "Ki", "setting": "[2]", "result": 65, "unit": "µM"}, {"measurement": "Effect of CUL alone on root length", "setting": "B. distachyon Bd21-3", "result": "did not elicit any significant effect"}, {"measurement": "Effect of CUL with 2 mg l^−1 DON on root length", "setting": "B. distachyon Bd21-3", "result": "clear dose-dependent synergistic effect"}, {"measurement": "Effect on DON-glucuronidation", "setting": "[3]", "result": "suppresses DON-glucuronidation"}, {"measurement": "Anti-fungal activity", "setting": "[4]", "result": "Weak anti-fungal activity"}, {"measurement": "Toxicity to animal cells", "setting": "animal cells", "result": "low toxicity"}, {"measurement": "Effect on growth of piglets", "setting": "piglets", "result": "no negative effects"}, {"measurement": "Effect on growth of Heliothis zea larvae", "setting": "Heliothis zea larvae", "result": "no negative effects"}, {"measurement": "Effect on mortality of Heliothis zea larvae in combination with DON", "setting": "Heliothis zea larvae", "result": "significantly increases mortality"}, {"measurement": "Increase of apparent KM of DON", "setting": "HvUGT13248", "result": "~10", "unit": "fold"}, {"measurement": "K iu of CUL (uncompetitive inhibition, UDP-glucose as variable substrate)", "setting": "HvUGT13248", "result": 91, "unit": "µM"}, {"measurement": "Ki", "setting": "HvUGT13248", "result": 56, "unit": "µM"}]}
